Entries after “also recorded” stand apart in the source; their conditions may differ.
How the values were obtained:
[1] = Mouse oral PK, mannoside concentration in urine; assay type: in vivo; conditions: mice, 50 mg/kg oral; samples at 1, 3, 6 and 8 hours
Experimental: Compounds ZFH-4269 (FIG. 6A), ZFH-5254 (FIG. 6B), ZFH5240 (FIG. 6C), and a Prodrug were dosed at 50 mg/kg and plasma and urine samples were taken at 1, 3, 6 and 8 hours after dosing. […] Taken together, the high oral bioavailability and in vivo efficacy observed in animal studies support mannosides as promising therapeutic candidates for UTI treatment/prevention.
For intraperitoneal dosing, 50 μl of a 2 mg/ml (5 mg/kg) or 4 mg/ml (10 mg/kg) solution of ZFH-2056 in PBS was injected into the peritoneal cavity of the mouse. For oral dosing, 100 μl of a 20 mg/ml (100 mg/kg) solution of ZFH-2056 in 8% DMSO was inoculated with a gavage needle into the mouse stomach. Urine was collected at 30 min, 1, 2, 3, 4, 6, and 8 h post-treatment. An equal volume of 10 μM internal standard (ZFH-2050) was added to the urine. Mannosides were extracted from the urine by loading on C18 columns (100 mg, Waters), washing with 30% methanol, and eluting with 60% methanol. Vacuum-concentrated eluates were analyzed using liquid chromatography-mass spectrometry system30 with a lower heated capillary temperature of 190° C. and a gradiert as follows: Solvent B (80% acetonitrile in 0.1% formic acid) was held constant at 5% for 5 minutes, increased to 44% B by 45 minutes, and then to a 95% B by 65 minutes. SRM mode quantification was performed with collision gas energy of 30% for the following MS/MS transitions (precursor m/z/product m/z): compound ZFH-2056, 447/285; compound ZFH-2050, 390/228. Absolute quantification was achieved by comparison to a calibration curve.

UTI89 = assay: Mouse model of acute UTI, bladder bacterial CFU after UTI89 infection; assay type: in vivo, Escherichia coli; conditions: for total bacterial CFUs in the bladder: mice, 6 hpi
Experimental: The efficacy of in vivo mannoside treatment was evaluated after orally dosing animals with 50 mg/kg of mannosides ZFH-4269 (FIG. 1A), ZFH-5254 (FIG. 1B) and ZFH-5240 (FIG. 1C) or DMSO or PBS 30 min prior to infecting with UTI89. At 6 hours post-infection (hpi) the bladders were removed and total bacterial CFUs were quantitated. […] Next, analogs of 254 were evaluated in the same mouse model of urinary tract infection. Animals were orally dosed with 25 mg/kg of mannosides ZFH-4269 (FIG. 2A), 1CJ68 (FIG. 2B) and 1CJ70 (FIG. 2C) in 10% cyclodextrin or 10% cyclodextrin 30 min prior to infecting with UT189.
The efficacy of in vivo mannoside treatment was evaluated after orally dosing animals with 25 mg/kg of mannosides ZFH269, Prodrug FIM-4269, ZFH-5254, and ZFH-5240 in 10% cyclodextrin or 10% cyclodextrin 30 min prior to infecting with UTI89. At 6 hours post-infection (hpi) the bladders were removed and total bacterial CFUs were quantitated. […] Next, several different prodrugs were evaluated in the same mouse model of urinary tract infection. Animals were orally dosed with 25 mg/kg of mannosides ZFH-4269, prodrug FIM-1233 (FIG. 8B), prodrug FIM-6123 (FIG. 8C) and prodrug 269 in 10% cyclodextrin or 10% cyclodextrin 30 min prior to infecting with UT189.
The FimH-mannose interaction was further investigated in an effort to develop potential ligand-based antagonists of UTIs. […] The non-reducing Man4 anchors into the mannose-binding pocket while the GlcNAc folds over Thr51 allowing specific interactions with a hydrophobic tyrosine gate. Heptyl mannoside mimics the GlcNAc tail of oligomannose-3 and extends it further to increase interactions outside the binding pocket resulting in high affinity binding (Kd=5 nM). Based on the high affinity of heptyl mannose for FimH, the ability of heptyl mannose to reduce bacterial infection in our mouse model of UTI was tested. First, biofilm formation as a surrogate for IBCs formed in the bladder was evaluated. […] Thus, UPEC strain UTI89 was incubated with heptyl mannose prior to inoculation into the bladders of mice.
Bacteria were grown under type 1 pili-inducing conditions (2×24 h at 37° C. statically in LB). The bacteria were harvested and resuspended to an OD600 of 0.5 in PBS. Eight-week-old C3H/HeN (Harlan) female mice were anesthetized by inhalation of isoflurane and infected via transurethral catheterization with […] of the bacterial suspension, resulting in 1-2×10^7 inoculum. At 6 hpi, mice were sacrificed by cervical dislocation under anesthesia and the bladders were immediately harvested and processed as described below. All animal studies using mice were approved by the Animal Studies Committee of Washington University (Animal Protocol Number 20100002).
Mannoside ZFH-2056 was administered either IP (5 mg/kg) or orally (100 mg/kg) 30 min prior to inoculation with UTI89. To enumerate the bacteria present, mice were sacrificed at 6 hpi and bladders were aseptically removed and homogenized in 1 ml PBS, serially diluted and plated onto LB agar plates. CFU was enumerated after 16 h of growth at 37° C.

FimH = target: T1, FimH (Escherichia coli, UniProt P08191); assay: Hemagglutination inhibition (HAI) assay, guinea pig red blood cells; assay type: cell-based, E. coli; conditions: concentration inhibiting >90% hemagglutination of guinea pig red blood cells
T1 construct: endogenous in cells; host or cells: type 1 piliated uropathogenic E. coli (UPEC)
Experimental: FIG. 15 depicts the hemagglutination assay (HA) used to assess the compounds' ability to block FimH mediated binding. The HAI titer quantitatively measure the effect of inhibitors on blocking the FimH-mediated hemagglutination (HA) of guinea pig red blood cell infected with E. coli.
In some embodiments, activity of the compound is measured using hemmagglutination titer of guinea pig red blood cells. Hemagglutination of guinea pig red blood cells by type1 piliated UPEC is dependent upon FimH mannose binding ability and serial dilutions allow a quantitative analysis.
Hemagglutination assays for mannose-sensitive agglutination of guinea pig red blood cells were performed as previously described.

[2] = 25 mg/kg oral in 10% cyclodextrin 30 min prior to infecting with UTI89

T1 sequence (P08191 22-300): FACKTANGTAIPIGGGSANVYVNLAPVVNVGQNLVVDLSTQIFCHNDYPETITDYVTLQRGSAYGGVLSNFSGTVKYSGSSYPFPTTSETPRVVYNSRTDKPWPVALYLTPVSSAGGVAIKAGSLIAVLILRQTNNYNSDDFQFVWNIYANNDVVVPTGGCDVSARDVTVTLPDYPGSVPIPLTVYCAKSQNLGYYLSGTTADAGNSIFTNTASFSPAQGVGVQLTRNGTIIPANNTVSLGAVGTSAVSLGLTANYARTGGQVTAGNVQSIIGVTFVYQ

CNC(=O)c1cccc(-c2ccc(O[C@H]3O[C@@H](CO)[C@@H](O)[C@H](O)[C@H]3O)c(C)c2)c1 [ZFH-4269, N-methyl-3-[3-methyl-4-[(2R,3R,4S,5S,6S)-3,4,5-trihydroxy-6-(hydroxymethyl)tetrahydropyran-2-yl]oxy-phenyl]benzamide]
detectability in urine [1]: detectable in the urine out to 8 hours post-treatment | bladder titers (UTI89; acute UTI model (FIG. 27D)): significantly reduce bladder titers | total bacterial CFUs in the bladder (UTI89; 25 mg/kg oral in 10% cyclodextrin 30 min prior to infecting with UTI89, 25 mg/kg): drop in bacterial counts | total bacterial CFUs in the bladder (UTI89; 25 mg/kg oral in 10% cyclodextrin 30 min prior to infecting with UTI89, listed as ZFH269, 25 mg/kg): drop in bacterial counts; also recorded: most efficiently reduced bacterial titers in the bladder; also recorded: significantly reduced bacterial titers in the bladder | total bacterial CFUs in the bladder (UTI89; 50 mg/kg oral 30 min prior to infecting with UTI89, vs DMSO or PBS, 50 mg/kg): drop in bacterial counts | total bacterial CFUs in the bladder (UTI89; 50 mg/kg oral 30 min prior to infecting with UTI89, vs DMSO or PBS, listed as 269, 50 mg/kg): reduced bacterial titers in the bladder relative to DMSO and PBS

Cc1cc(-c2ccc3cc[nH]c(=O)c3c2)ccc1O[C@H]1O[C@@H](CO)[C@@H](O)[C@H](O)[C@H]1O [Example 7, 7-[3-methyl-4-[(2R,3R,4S,5S,6S)-3,4,5-trihydroxy-6-(hydroxymethyl)tetrahydropyran-2-yl]oxy-phenyl]-2H-isoquinolin-1-one]
HAI Titer EC>90 (FimH): 0.030 µM | detectability in urine [1]: detectable in the urine out to 8 hours post-treatment | total bacterial CFUs in the bladder (UTI89; [2]): drop in bacterial counts | total bacterial CFUs in the bladder (UTI89; 50 mg/kg oral 30 min prior to infecting with UTI89, vs DMSO or PBS, listed as 254, 50 mg/kg): reduced bacterial titers in the bladder relative to DMSO and PBS | total bacterial CFUs in the bladder (UTI89; 50 mg/kg oral 30 min prior to infecting with UTI89, vs DMSO or PBS, listed as ZFH-5254, 50 mg/kg): drop in bacterial counts

CNC(=O)c1cccc(-c2ccc(O[C@H]3O[C@@H](COC(=O)CN(C)C)[C@@H](O)[C@H](O)[C@H]3O)c(C)c2)c1 [Example 22, [(2S,3S,4S,5R,6R)-3,4,5-trihydroxy-6-[2-methyl-4-[3-(methylcarbamoyl)phenyl]phenoxy]tetrahydropyran-2-yl]methyl 2-dimethylaminoacetate]
total bacterial CFUs in the bladder (UTI89; [2]): drop in bacterial counts

Cc1nnc(-c2ccc(-c3ccc(O[C@H]4O[C@@H](CO)[C@@H](O)[C@H](O)[C@H]4O)c(C)c3)cc2)o1 [Example 5, (2S,3S,4S,5R,6R)-2-(hydroxymethyl)-6-[2-methyl-4-[4-(5-methyl-1,3,4-oxadiazol-2-yl)phenyl]phenoxy]tetrahydropyran-3,4,5-triol]
HAI Titer EC>90 (FimH): 0.062 µM

CNC(=O)c1cccc(-c2ccc(OC3OC(COP(=O)(O)O)C(O)C(O)C3O)c(C)c2)c1 [Example 21, [(2S,3S,4S,5R,6R)-3,4,5-trihydroxy-6-[2-methyl-4-[3-(methylcarbamoyl)phenyl]phenoxy]tetrahydropyan-2-yl]methyl dihydrogen phosphate]
total bacterial CFUs in the bladder (UTI89; [2]): drop in bacterial counts

CNC(=O)c1sc(-c2ccc(O[C@H]3O[C@@H](CO)[C@@H](O)[C@H](O)[C@H]3O)c(C)c2)cc1NC(N)=O [Example 17, N-methyl-5-[3-methyl-4-[(2R,3R,4S,5S,6S)-3,4,5-trihydroxy-6-(hydroxymethyl)tetrahydropyran-2-yl]oxy-phenyl]-3-ureido-thiophene-2-carboxamide]
HAI Titer EC>90 (FimH): 0.024 µM

CNC(=O)c1cccc(-c2ccc(C[C@H]3O[C@@H](CO)[C@@H](O)[C@H](O)[C@H]3O)c(C)c2)c1 [Example 19, N-methyl-3-[3-methyl-4-[[(2R,3R,4R,5S,6S)-3,4,5-trihydroxy-6-(hydroxymethyl)tetrahydropyran-2-yl]methyl]phenyl]benzamide]
HAI Titer EC>90 (FimH): 2.000 µM

Cc1nnc(-c2cccc(-c3ccc(O[C@H]4O[C@@H](CO)[C@@H](O)[C@H](O)[C@H]4O)c(C)c3)c2)o1 [Example 6, (2S,3S,4S,5R,6R)-2-(hydroxymethyl)-6-[2-methyl-4-[3-(5-methyl-1,3,4-oxadiazol-2-yl)phenyl]phenoxy]tetrahydropyran-3,4,5-triol]
HAI Titer EC>90 (FimH): 0.062 µM

Cc1cc(-c2ccc3ccn(CC(=O)Nc4ccncc4)c(=O)c3c2)ccc1O[C@H]1O[C@@H](CO)[C@@H](O)[C@H](O)[C@H]1O [Example 11, 2-[7-[3-methyl-4-[(2R,3R,4S,5S,6S)-3,4,5-trihydroxy-6-(hydroxymethyl)tetrahydropyran-2-yl]oxy-phenyl]-1-oxo-2-isoquinolyl]-N-(4-pyridyl)acetamide]
HAI Titer EC>90 (FimH): 0.001 µM

COC(=O)c1cccc(-c2ccc(O[C@H]3O[C@@H](CO)[C@@H](O)[C@H](O)[C@H]3O)c(C)c2)c1 [Example 1, methyl 3-[3-methyl-4-[(2R,3R,4S,5S,6S)-3,4,5-trihydroxy-6-(hydroxymethyl)tetrahydropyran-2-yl]oxy-phenyl]benzoate]
HAI Titer EC>90 (FimH): 0.12 µM

From US9957289B2, “Compounds and methods for treating bacterial infections” (Washington University, priority 2013, dated 2018)
